“Also recorded” adds a separate entry of the source.
Columns and labels:
[1] = test system: Panx-1; details: cited from earlier work; for IC50: Panx-1 blockers, reference compounds
[2] = molecular target: T1, Panx-1 channels (Mus musculus, UniProt Q9JIP4); test: Voltage clamp on Xenopus laevis oocytes expressing Panx-1 channels; type: cell-based; details: for % inhibition of Panx1-mediated membrane currents: Figure 4 dose-response plot, concentration not printed in the legend; for IC50: dose-response curves, Panx1-mediated membrane currents in oocytes
T1 construct: expressed in transfected cells; host or cells: Xenopus laevis oocytes injected with in vitro-transcribed mRNA
T1 sequence (Q9JIP4 whole entry): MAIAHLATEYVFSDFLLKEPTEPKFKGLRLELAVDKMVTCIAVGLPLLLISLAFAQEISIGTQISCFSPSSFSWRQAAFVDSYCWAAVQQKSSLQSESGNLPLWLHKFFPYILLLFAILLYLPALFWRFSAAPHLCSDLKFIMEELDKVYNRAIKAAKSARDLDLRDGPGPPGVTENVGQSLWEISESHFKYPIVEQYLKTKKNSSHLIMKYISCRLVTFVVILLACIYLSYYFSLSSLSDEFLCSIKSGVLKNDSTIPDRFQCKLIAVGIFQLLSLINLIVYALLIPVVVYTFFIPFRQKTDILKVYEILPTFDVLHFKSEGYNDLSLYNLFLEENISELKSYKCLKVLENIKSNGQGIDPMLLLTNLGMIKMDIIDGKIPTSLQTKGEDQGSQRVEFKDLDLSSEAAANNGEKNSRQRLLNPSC

[3] = molecular target: T1, Panx-1 channels; test: as above; type: cell-based; details: for inhibition at 50 µM / I (%) inhibition of Panx-1 currents: voltage clamp, Xenopus laevis oocytes expressing Panx-1 channels, 50 µM; for inhibition at 50 µM: read-out: I (%) inhibition of Panx-1 currents; for classification as active or inactive Panx-1 blocker: grouping chosen for the virtual screening
Protocol: All new products were screened as Panx-1 blockers at the dose of 50 µM using the Voltage Clamp technique on Xenopus Laevis oocytes expressing Panx-1 channels. The membrane potential of the cells was held at -60 mV and voltage steps to +60 mV were applied to induce membrane currents. To verify that Panx-1 channels carried the currents, in each experiment 100 µM carbenoxolone (CBX) was applied. At this concentration, CBX is known to yield 100% inhibition of Panx-1 activity. If present, leak currents resistant to CBX were subtracted from the total current to assess % inhibition mediated by the tested compounds. Table 1 and Table 2 report the electrophysiological results of naphthalene-2-sulphonic acid derivatives bearing at position 5 an amino- (3a–e, 4 and 5) or amide group (7a–g, 8 and 9) and of compound 13.
Oocytes of Xenopus laevis are prepared as previously described in [39] where the oocytes are isolated from surgically removed ovary segments incubated in an Oocyte Ringe solution Ca2-free (OR2: in mM: 82.5 NaCl, 2.5 KCl, 1.0 MgCl2, […], 1.0 Na2HPO4 e 5.0 HEPES, pH 7.5) with 2 mg/mL of collagenase and antibiotics (10,000 U/mL penicillin and 10 mg/mL of streptomycin) stirred at room temperature for 3 h. After being washed with OR2, oocytes free of follicular cells and that have a uniform pigmentation are chosen and stored in OR2 for 18 °C.
Mouse pannexin1, in pCS2, was linearised with NotI. In vitro transcription was performed with the polymerase SP6, using the Message Machine kit (Ambion). mRNA was quantified by absorbance (260 nm), and the proportion of full-length transcripts was checked by agarose gel electrophoresis. In vitro-transcribed mRNA (~20 nL) was injected into Xenopus laevis oocytes.
Whole-cell membrane currents of oocytes were measured using a two-electrode voltage clamp (Gene Clamp 500B, Axon Instruments/Molecular Devices Sunnyvale, Union City, CA, USA). Glass pipettes were pulled using a P-97 Flaming/Brown type puller (Sutter, Novato, CA, USA). The recording chamber was perfused continuously with frog Ringer (OR) solution (in mM: 82.5 NaCl, 2.5 KCl, 1 CaCl2, 1 MgCl2, 1 Na2HPO4, and 5 HEPES, pH 7.5).
Membrane conductance was determined using voltage pulses, and the pulse-induced current amplitudes were divided by the amplitudes of the voltage steps. For calculation of % inhibition, leak currents were subtracted. Typically, leak currents after the interventions were smaller than at the beginning of the experiment and this smaller value was used for the subtraction to avoid overestimation of the inhibitory effect. For an independent measure of the leak current, oocytes at the end of the experiment were exposed to 100 µM carbenoxolone, which is known to close Panx1 channels 100%. Oocytes expressing Panx1 were held at −60 mV, and pulses to +60 mV were applied to transiently open the channels by means of the voltage gate. Pulses 5 s in duration were applied at 0.1 Hz for current and conductance measurements.

[4] = test system: oxaliplatin-induced thermal allodynia in mice; test: Cold plate test in mouse model of oxaliplatin-induced neuropathic pain; type: in vivo; details: oxaliplatin-treated mice; for time of maximum anti-allodynic effect: 3 nmol intrathecally; for pain threshold (licking latency), Cold plate test: 1 nmol and 3 nmol intrathecally, vs oxaliplatin + vehicle
Protocol: The two selected Panx-1 blockers, 4 and 13, were tested in a mouse model of oxaliplatin-induced neuropathic pain that involves this channel. Oxaliplatin is a third-generation platinum-based chemotherapeutic agent that, similar to other platinum-based compounds, interferes with the proliferation of tumor cells, leading to cancer cell destruction […] Recent studies have highlighted the efficacy of selective Panx1 antagonists in […] evoked by repeated administrations of antineoplastic drug, making Panx1 a possible therapeutic target in reducing chemotherapeutic-induced neuropathic pain [16, 23]. In this experiment we tested the anti-hypersensitivity properties of two novel Panx1 antagonists in a mouse model of oxaliplatin-induced thermal allodynia. […] This time delay is reported here as licking latency (s). The two compounds were acutely injected intrathecally at 1 nmol and 3 nmol in oxaliplatin-treated animals. […] The effect recorded was dose-dependent (Figure 5b).
Eight-week-old male CD-1 mice (Envigo, Varese, Italy) weighing approximately 20–25 g at the beginning of the experimental procedure were used. Animals were housed in the Centro Stabulazione Animali da Laboratorio (CeSAL; University of Florence, Italy) and used at least 1 week after their arrival; 10 mice were housed per cage (size 26 cm × 41 cm). Animals were fed a standard laboratory diet and tap water ad libitum and kept at 23 ± 1 °C with a 12 h light/dark cycle (light at 7 a.m.).
Mice treated with oxaliplatin (Carbosynth, Pangbourne, UK; 2.4 mg kg^−1) were administered intraperitoneally (i.p.) for 2 weeks Oxaliplatin was dissolved in a 5% glucose solution. Control animals received an equivalent volume of vehicle. Behavioural tests were performed starting from day 14, when neuropathy was well established.
Compounds 4 and 13 were intrathecally (i.t.) injected in conscious mice as previously described. Compound 4 was dissolved in sterile saline solution while compound 13 was dissolved in a mixture consisting of PEG400, TWEEN 20 and sterile saline solution (1:1:3, respectively). Briefly, a 25 µL Hamilton syringe connected to a 30-gauge needle was intervertebrally inserted between the L4 and L5 region, and advanced 6 mm into the lumbar enlargement of the spinal cord. Behavioural measurements were performed before and 15 min, 30 min, 45 min, and 60 min after the administration of compounds.
Thermal allodynia was assessed using the Cold-plate test. With minimal animal-handler interaction, mice were taken from home-cages, and placed onto the surface of the cold-plate (Ugo Basile, Varese, Italy) maintained at a constant temperature of 4 ± 1 °C. Ambulation was restricted by a cylindrical plexiglas chamber (diameter: 10 cm, height: 15 cm), with open top. A timer controlled by foot peddle began timing response latency from the moment the mouse was placed onto the cold-plate. Pain-related behaviour (licking of the hind paw) was observed, and the time (seconds) of the first sign was recorded. The cut-off time of the latency of paw lifting or licking was set at 30 s.
Figure 5 Pain-relieving effect of (a) 4 and (b) 13 on oxaliplatin-induced thermal allodynia in mice. Cold plate test. […] Pain-related behavior (i.e., lifting and licking of the hind paw) was observed and the time (s) of the first sign was recorded. ** p < 0.01 vs. vehicle + vehicle treated animals; ^ p < 0.05 and ^^ p < 0.01 vs. oxaliplatin + vehicle treated animals. […]

SMILES	inhibition at 50 µM [3] [%]	melting point	further results
CCN(Cc1cccc(S(=O)(=O)O)c1)c1ccc(C(=C2C=CC(=[N+](CC)Cc3cccc(S(=O)(=O)O)c3)C=C2)c2ccccc2S(=O)(=O)[O-])cc1 [Brilliant Blue FCF]	–	–	IC50 [1]: 0.27 µM
CC1(C)[C@@H](OC(=O)CCC(=O)O)CC[C@]2(C)[C@H]3C(=O)C=C4[C@@H]5C[C@@](C)(C(=O)O)CC[C@]5(C)CC[C@@]4(C)[C@]3(C)CC[C@@H]12 [Carbenoxolone, carbenoxolone]	–	–	% inhibition of Panx1-mediated membrane currents [2]: 100%; inhibition of Panx-1 activity ([1]; 100 µM carbenoxolone): 100%; IC50 [1]: 10 µM
O=C(O)c1ccc(CNc2cccc3cc(S(=O)(=O)O)ccc23)cc1 [Compound 4, 4-[(6-Sulfonaphthalen-1-yl)aminomethyl]benzoic Acid]	97 ± 1.5	–	time of maximum anti-allodynic effect [4]: 45 min; time after injection from which the enhancement of pain threshold is significant ([4]; intrathecal injection): 30 min; pain threshold (licking latency), Cold plate test [4]: significantly increase the mouse pain threshold; also recorded: significant enhancement of the pain threshold; IC50 [2]: 8.8 µM
O=C(O)c1ccc(CN(Cc2ccc(C(=O)O)cc2)S(=O)(=O)c2ccc(C(=O)O)cc2)cc1 [Compound 13, 4,4′-{{[(4-Carboxyphenyl)sulfonyl]azanediyl}bis(methylene)}dibenzoic acid]	94	–	I (%) inhibition of Panx-1 currents [3]: 93.7 ± 2.3%; time of maximum anti-allodynic effect [4]: 45 min; pain threshold (licking latency), Cold plate test [4]: significantly increase the mouse pain threshold; also recorded: significant increase of the mouse pain threshold; % inhibition of Panx1-mediated membrane currents [2]: 100%; IC50 [2]: 1.2 µM
Nc1c(C(=O)O)cnn1-c1ccc(S(=O)(=O)NCc2ccccc2)cc1 [Compound 23, 5-Amino-1-(4-(N-benzylsulfamoyl)phenyl)-1H-pyrazole-4-carboxylic acid]	16.3 ± 6.4	207 to 210 °C	–
Nc1c(C(=O)O)cnn1-c1ccc(S(=O)(=O)N(Cc2ccccc2)Cc2ccccc2)cc1 [Compound 24, 5-Amino-1-(4-(N,N-dibenzylsulfamoyl)phenyl)-1H-pyrazole-4-carboxylic acid]	42	168 to 170 °C	I (%) inhibition of Panx-1 currents [3]: 42.7 ± 2.4 (4) %; classification as active or inactive Panx-1 blocker [3]: inactive
Nc1c(C(=O)O)cnn1-c1ccc(S(=O)(=O)NCCc2ccccc2)cc1 [Compound 28, 5-Amino-1-(4-(N-phenethylsulfamoyl)phenyl)-1H-pyrazole-4-carboxylic acid]	22.7 ± 5.5	186 to 188 °C	–
O=C(O)c1cnn(-c2ccc(S(=O)(=O)NCCc3ccccc3)cc2)c1NCCc1ccccc1 [Compound 29, 5-(Phenethylamino)-1-(4-(N-phenethylsulfamoyl)phenyl)-1H-pyrazole-4-carboxylic acid]	25.3 ± 0.9	105 to 107 °C	–
Nc1c(C(=O)O)cnn1-c1ccc(S(=O)(=O)N(CCc2ccccc2)Cc2ccccc2)cc1 [Compound 30, 5-Amino-1-(4-(N-benzyl-N-phenethylsulfamoyl)phenyl)-1H-pyrazole-4-carboxylic acid]	30 ± 7.2	263 to 266 °C (dec.)	–
O=C(O)c1cc([N+](=O)[O-])ccc1NCCCc1ccccc1 [NPPB, 5-nitro-2-(3-phenylpropylamino)benzoic acid]	–	–	IC50 [1]: 50 µM
CCCN(CCC)S(=O)(=O)c1ccc(C(=O)O)cc1 [Probenecid, reference compound]	29	–	classification as active or inactive Panx-1 blocker [3]: inactive; IC50 [1]: 150 µM

Further lines, with some results ahead:

inhibition at 50 µM [3] [%]	melting point	SMILES	further results
66.7 ± 5.5	–	O=S(=O)(O)c1ccc2c(NCCCc3ccccc3)cccc2c1 [Compound 3c, 5-[(3-Phenylpropyl)amino]naphthalene-2-sulfonic acid]	IC50 [2]: 9 µM
67.8 ± 2.2	–	CCCCN(CCCC)S(=O)(=O)c1ccc(C(=O)Nc2cccc3cc(S(=O)(=O)O)ccc23)cc1 [Compound 7c, 5-[4-(N,N-dibutylsulfamoyl)benzamido]naphthalene-2-sulfonic acid]	IC50 [2]: 40.4 µM
75	–	O=C(Nc1cccc2cc(S(=O)(=O)O)ccc12)c1ccc(S(=O)(=O)N(Cc2ccccc2)Cc2ccccc2)cc1 [Compound 7d, 5-[4-(N,N-dibenzylsulfamoyl)benzamido]naphthalene-2-sulfonic acid]	I (%) inhibition of Panx-1 currents [3]: 75.2 ± 5.90 (4) %; IC50 [2]: 15.1 µM
14.3 ± 7.4	240 °C (dec.)	CCN(CC)S(=O)(=O)c1ccc(-n2ncc(C(=O)O)c2N)cc1 [Compound 19a, 5-Amino-1-(4-(N,N-diethylsulfamoyl)phenyl)-1H-pyrazole-4-carboxylic acid]	–
21 ± 7.8	167 to 168 °C	CCCN(CCC)S(=O)(=O)c1ccc(-n2ncc(C(=O)O)c2N)cc1 [Compound 19b, 5-Amino-1-(4-(N,N-dipropylsulfamoyl)phenyl)-1H-pyrazole-4-carboxylic acid]	–
28 ± 6.9	170 to 172 °C	CCCNc1c(C(=O)O)cnn1-c1ccc(S(=O)(=O)N(CCC)CCC)cc1 [Compound 19c, 1-(4-(N,N-dipropylsulfamoyl)phenyl)-5-(propylamino)-1H-pyrazole-4-carboxylic acid]	–

— article PMC9103715, “New Panx-1 Blockers: Synthesis, Biological Evaluation and Molecular Dynamic Studies” (International Journal of Molecular Sciences, 2022)
